Where a name gives a salt, the structure may show the parent alone.
System: mice
Assay: Analgesia, thermal radiation (tail flick) test on mice, intravenous
Format: in vivo, mice (male NMRI)
Settings: Mus musculus, 20 min, determined at effective maximum 20 minutes after administration, effect = latency ≥150% of pre-test average
Excerpt: Testing for analgesia using the tail flick test on mice
The analgesic effectiveness of the compounds according to the invention was investigated in the thermal radiation (tail flick) test on mice using the method of D'Amour and Smith (J. Pharm. Exp. Ther. 72, 74-79 (1941). Male NMRI mice with a weight between 20 and 24 g were used for this purpose. The animals were placed individually in special test cages and the bases of their tails were exposed to the focused thermal radiation from an electric lamp (Rhema Analgesiemeter Type 3010). The lamp intensity was adjusted so that the time from switching on the lamp until the sudden twitching away of the tail (latency of pain) was 3-5 seconds for untreated animals. Before the administration of a compound according to the invention, the animals were pre-tested twice within five minutes and the average value of these measurements was calculated as the pre-test average. The pain measurement was made 20, 40 and 60 minutes after intravenous administration. When the latency of pain increased, the maximum time of exposure was restricted to 12 seconds and an increase in the latent period to ≥150% of the pre-test average value was assessed as an analgesic effect. In order to determine the dosage-dependency, the respective compound according to the invention was applied in doses increasing logarithmically by a factor of 3-5, which included the threshold and the maximum effective dose each time. The ED50 values were determined from the number of analgesic animals by the method of Litchfield and Wilcoxon (J. Pharm. Exp. Ther. 96, […], (1949)). Determination of the ED50 was made at the effective maximum 20 minutes after intravenous administration of the substance.

**Q.** `COc1cccc([C@@]2(O)CC[C@H](Cc3ccccc3)C[C@@H]2CN(C)C)c1.Cl` (racemic) [(35), (1RS,2RS,4SR)-4-benzyl-2-dimethylaminomethyl-1-(3-methoxy-phenyl)-cyclohexanol hydrochloride] was tested. Which ED50 did it give?
**A.** 2.43 mg/kg

**Q.** With `CN(C)C[C@H]1C[C@@H](OCC2CCCC2)CC[C@]1(O)c1cccc(OC2CCCC2)c1.Cl` (racemic) [(60), (1RS,2RS,4SR)-4-cyclopentylmethoxy-1-(3-cyclopentyl-oxy-phenyl)-2-dimethylaminomethyl-cyclohexanol hydrochloride] as the compound, how does the ED50 read?
**A.** 2.46 mg/kg

**Q.** Which ED50 does the source give for `C=C(C)CO[C@H]1CC[C@](O)(c2cccc(OC)c2)[C@@H](CN(C)C)C1` (relative stereo) [(14), (1RS,2RS,4SR)-2-dimethylaminomethyl-1-(3-methoxy-phenyl)-4-(2-methyl-2-allyloxy)-cyclohexanol hydrochloride] here?
**A.** 0.379 mg/kg

**Q.** For `CN(C)C[C@H]1C[C@@H](CCC2CCCC2)CC[C@]1(O)c1cccc(OC2CCCC2)c1` [(71), hydrochloride], which ED50 is on record?
**A.** 3.35 mg/kg

**Q.** For `CN(C)C[C@H]1C[C@@H](OCc2ccccc2)CC[C@]1(O)c1cccc(O)c1.Cl` [(85), (+)-(1R, 2R, 4S)-3-(4-benzyloxy-2-dimethylaminomethyl-1-hydroxycyclohexyl)-phenol hydrochloride], which ED50 is on record?
**A.** 0.068 mg/kg

**Q.** Which ED50 does the source give for `COc1cccc([C@@]2(O)CC[C@H](OCc3ccc(Cl)cc3)C[C@@H]2CN(C)C)c1.Cl` [(93), (+)-(1R, 2R, 4S)-4-(4-chloro-benzyloxy)-2-dimethylaminomethyl-1-(3-methoxyphenyl)-cyclohexanol hydrochloride] here?
**A.** 0.37 mg/kg

**Q.** For `COc1cccc([C@@]2(O)CC[C@H](OCc3ccccc3)C[C@@H]2CN(C)C)c1.Cl` [[(+)1], (1R,2R,4S)-4-benzyloxy-2-dimethylaminomethyl-1-(3-methoxy-phenyl)-cyclohexanol hydrochloride], which ED50 is on record?
**A.** 0.049 mg/kg

**Q.** With `CSc1cccc([C@@]2(O)CC[C@H](OCc3ccccc3)C[C@@H]2CN(C)C)c1` [[(+)6], (1R,2R,4S)-4-benzyloxy-2-[(dimethylamino)methyl]-1-(3-methyl-sulphanyl-phenyl)-cyclohexanol hydrochloride] as the compound, how does the ED50 read?
**A.** 0.19 mg/kg

**Q.** `COc1cccc([C@]2(O)CC[C@@H](OCc3ccccc3)C[C@H]2CN(C)C)c1.Cl` [[(-)1], (1S,2S,4R)-4-benzyloxy-2-dimethylaminomethyl-1-(3-methoxy-phenyl)-cyclohexanol hydrochloride] was tested. Which ED50 did it give?
**A.** 0.822 mg/kg

Source: US5801201A, “1-phenyl-2-dimenthylaminomethyl-cyclohexan-1-ol compounds as pharmaceutical active ingredients” (priority 1995, dated 1998)
